The results in this text go back to patent US20230329993A1, “PERSONAL CLEANSING COMPOSITION FREE OF ALKYL SULFATE OR ALKYL ETHER SULFATE TYPE OF SURFACTANTS” (The Procter & Gamble Company, priority 2022, published 2023).

A short description of the data set: Cone/Plate Viscosity Measurement. The data set is classed as physicochemical. The note with it: composition such as C. Ex. 1; thickener level not stated. The procedure: The viscosity of the personal cleansing composition is measured by a Cone/Plate Brookfield DV12T, by Brookfield Engineering Laboratories, Stoughton, MA. The cone used (Spindle CPA-41z) has a diameter of […] and 3° angle. The viscosity is determined using a steady state flow experiment at constant shear rate of 2 s^−1 and at temperature of 26.5° C. The sample size is 2.5 mL.

Consider cocamide MEA, for which the “Effect of a thickener on enhancing the viscosity of a personal cleansing composition” value is recorded as “good response”.
